Reference: the kinase profiling compilation of Christmann-Franck et al. (2016)

How the values were obtained:
Assay in all cases: radiometric filter-binding kinase assay, Kinase HotSpot
Details in all cases: compound 0.5 µM; ATP 10 µM
ABL1 (human) = ABL1 (human) (UniProt P00519)
ACVR1B (human) = ACVR1B (human) (UniProt P36896)
AKT2 (human) = AKT2 (human) (UniProt P31751)
AXL (human) = AXL (human) (UniProt P30530)
CAMK2B (human) = CAMK2B (human) (UniProt Q13554)
CAMK4 (human) = CAMK4 (human) (UniProt Q16566)
CDC42BPA (human) = CDC42BPA (human) (UniProt Q5VT25)
CDK6 CCND1 (human) = CDK6 CCND1 (human) (UniProt Q00534+P24385)
CHUK (human) = CHUK (human) (UniProt O15111)
CLK3 (human) = CLK3 (human) (UniProt P49761)
CSF1R (human) = CSF1R (human) (UniProt P07333)
CSNK1D (human) = CSNK1D (human) (UniProt P48730)
DYRK1B (human) = DYRK1B (human) (UniProt Q9Y463)
FES (human) = FES (human) (UniProt P07332)
FGFR1 (human) = FGFR1 (human) (UniProt P11362)
FGR (human) = FGR (human) (UniProt P09769)
FLT3 (human) = FLT3 (human) (UniProt P36888)
FLT3 (human), sequence (P36888 whole entry, looked up): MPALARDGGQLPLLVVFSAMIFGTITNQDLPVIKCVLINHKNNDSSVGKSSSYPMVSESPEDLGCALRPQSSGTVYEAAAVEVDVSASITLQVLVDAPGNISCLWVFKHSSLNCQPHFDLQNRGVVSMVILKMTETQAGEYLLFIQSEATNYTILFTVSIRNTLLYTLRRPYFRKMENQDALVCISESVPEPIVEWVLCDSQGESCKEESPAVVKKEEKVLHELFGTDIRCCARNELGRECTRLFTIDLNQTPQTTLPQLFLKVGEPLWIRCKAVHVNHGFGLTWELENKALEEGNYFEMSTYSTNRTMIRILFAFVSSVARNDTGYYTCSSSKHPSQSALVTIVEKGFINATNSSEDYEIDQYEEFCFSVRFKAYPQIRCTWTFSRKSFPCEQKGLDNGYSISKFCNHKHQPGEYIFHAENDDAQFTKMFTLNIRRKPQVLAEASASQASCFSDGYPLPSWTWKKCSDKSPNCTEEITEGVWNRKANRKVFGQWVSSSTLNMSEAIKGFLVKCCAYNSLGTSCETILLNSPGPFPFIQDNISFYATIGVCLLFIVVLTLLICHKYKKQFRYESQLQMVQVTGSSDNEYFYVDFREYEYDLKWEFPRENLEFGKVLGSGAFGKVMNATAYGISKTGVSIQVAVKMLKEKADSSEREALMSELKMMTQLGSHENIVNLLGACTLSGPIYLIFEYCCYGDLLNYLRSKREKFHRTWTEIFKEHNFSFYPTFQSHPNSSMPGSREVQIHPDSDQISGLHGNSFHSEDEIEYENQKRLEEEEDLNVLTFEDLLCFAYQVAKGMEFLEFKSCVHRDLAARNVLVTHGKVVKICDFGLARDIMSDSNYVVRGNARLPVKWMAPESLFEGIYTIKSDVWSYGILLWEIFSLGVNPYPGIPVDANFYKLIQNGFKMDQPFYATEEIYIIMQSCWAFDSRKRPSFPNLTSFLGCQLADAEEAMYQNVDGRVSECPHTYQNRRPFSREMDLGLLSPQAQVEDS

GRK7 (human) = GRK7 (human) (UniProt Q8WTQ7)
GSG2 (human) = GSG2 (human) (UniProt Q8TF76)
INSRR (human) = INSRR (human) (UniProt P14616)
INSRR (human), sequence (P14616 whole entry, looked up): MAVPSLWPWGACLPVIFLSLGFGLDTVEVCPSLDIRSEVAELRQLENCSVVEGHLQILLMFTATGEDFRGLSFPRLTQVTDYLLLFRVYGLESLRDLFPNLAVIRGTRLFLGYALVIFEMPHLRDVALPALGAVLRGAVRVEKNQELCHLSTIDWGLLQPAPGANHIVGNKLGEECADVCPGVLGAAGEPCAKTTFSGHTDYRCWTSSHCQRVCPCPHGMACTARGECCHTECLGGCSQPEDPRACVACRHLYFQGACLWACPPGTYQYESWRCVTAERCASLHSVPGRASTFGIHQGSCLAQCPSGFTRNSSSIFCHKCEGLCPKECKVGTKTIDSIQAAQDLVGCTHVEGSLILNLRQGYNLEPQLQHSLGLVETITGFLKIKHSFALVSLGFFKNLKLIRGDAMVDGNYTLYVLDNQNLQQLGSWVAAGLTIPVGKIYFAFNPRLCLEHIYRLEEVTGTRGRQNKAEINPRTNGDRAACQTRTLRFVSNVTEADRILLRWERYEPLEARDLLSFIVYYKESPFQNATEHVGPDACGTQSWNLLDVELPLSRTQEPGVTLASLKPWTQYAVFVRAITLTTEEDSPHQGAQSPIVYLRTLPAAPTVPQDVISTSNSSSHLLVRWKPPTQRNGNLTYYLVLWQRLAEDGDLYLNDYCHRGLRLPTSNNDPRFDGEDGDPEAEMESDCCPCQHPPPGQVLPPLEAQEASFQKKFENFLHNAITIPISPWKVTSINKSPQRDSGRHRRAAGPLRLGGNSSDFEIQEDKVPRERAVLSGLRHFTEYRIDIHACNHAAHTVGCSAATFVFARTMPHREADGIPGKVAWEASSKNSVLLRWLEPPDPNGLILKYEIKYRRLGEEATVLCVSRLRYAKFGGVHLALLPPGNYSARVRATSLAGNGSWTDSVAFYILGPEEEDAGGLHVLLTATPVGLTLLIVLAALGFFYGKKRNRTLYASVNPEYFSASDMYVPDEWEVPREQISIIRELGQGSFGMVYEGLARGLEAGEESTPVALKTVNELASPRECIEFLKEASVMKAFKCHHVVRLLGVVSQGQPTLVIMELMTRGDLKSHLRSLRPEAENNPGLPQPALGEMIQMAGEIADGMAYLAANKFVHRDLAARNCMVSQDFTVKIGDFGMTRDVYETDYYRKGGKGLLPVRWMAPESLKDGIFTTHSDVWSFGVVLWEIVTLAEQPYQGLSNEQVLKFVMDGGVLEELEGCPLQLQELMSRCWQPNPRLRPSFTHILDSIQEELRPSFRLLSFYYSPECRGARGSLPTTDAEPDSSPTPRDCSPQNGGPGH

IRAK1 (human) = IRAK1 (human) (UniProt P51617)
MAPK3 (human) = MAPK3 (human) (UniProt P27361)
MAPK3 (human), sequence (P27361 whole entry, looked up): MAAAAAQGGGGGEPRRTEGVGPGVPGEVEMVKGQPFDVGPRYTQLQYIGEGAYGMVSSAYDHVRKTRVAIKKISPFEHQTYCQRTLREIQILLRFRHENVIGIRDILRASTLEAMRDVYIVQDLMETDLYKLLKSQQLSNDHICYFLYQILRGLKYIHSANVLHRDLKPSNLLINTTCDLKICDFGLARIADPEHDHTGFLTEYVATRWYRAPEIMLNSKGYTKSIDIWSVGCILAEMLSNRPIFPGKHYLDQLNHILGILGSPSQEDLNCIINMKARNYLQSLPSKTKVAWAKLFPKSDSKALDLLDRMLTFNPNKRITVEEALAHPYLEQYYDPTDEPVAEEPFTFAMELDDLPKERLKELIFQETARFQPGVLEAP

MAPK9 (human) = MAPK9 (human) (UniProt P45984)
MAPK9 (human), sequence (P45984 whole entry, looked up): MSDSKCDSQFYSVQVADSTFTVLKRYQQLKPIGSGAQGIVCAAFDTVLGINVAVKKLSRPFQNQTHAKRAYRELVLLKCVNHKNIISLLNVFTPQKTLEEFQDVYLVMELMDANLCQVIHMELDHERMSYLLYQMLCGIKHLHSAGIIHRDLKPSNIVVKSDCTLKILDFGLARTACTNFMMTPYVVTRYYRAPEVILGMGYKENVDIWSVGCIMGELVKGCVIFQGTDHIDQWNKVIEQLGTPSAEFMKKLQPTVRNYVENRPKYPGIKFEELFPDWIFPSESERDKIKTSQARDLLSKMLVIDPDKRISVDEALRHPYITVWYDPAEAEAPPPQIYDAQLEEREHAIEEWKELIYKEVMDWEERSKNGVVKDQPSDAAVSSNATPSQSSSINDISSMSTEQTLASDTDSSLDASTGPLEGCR

MARK1 (human) = MARK1 (human) (UniProt Q9P0L2)
MARK2 (human) = MARK2 (human) (UniProt Q7KZI7)
[1] = system: MKNK1 (human), Q9BUB5 [T385D; 165-205 del]
MKNK1 (human), Q9BUB5 [T385D; 165-205 del], sequence (Q9BUB5 whole entry, looked up, stated change not applied): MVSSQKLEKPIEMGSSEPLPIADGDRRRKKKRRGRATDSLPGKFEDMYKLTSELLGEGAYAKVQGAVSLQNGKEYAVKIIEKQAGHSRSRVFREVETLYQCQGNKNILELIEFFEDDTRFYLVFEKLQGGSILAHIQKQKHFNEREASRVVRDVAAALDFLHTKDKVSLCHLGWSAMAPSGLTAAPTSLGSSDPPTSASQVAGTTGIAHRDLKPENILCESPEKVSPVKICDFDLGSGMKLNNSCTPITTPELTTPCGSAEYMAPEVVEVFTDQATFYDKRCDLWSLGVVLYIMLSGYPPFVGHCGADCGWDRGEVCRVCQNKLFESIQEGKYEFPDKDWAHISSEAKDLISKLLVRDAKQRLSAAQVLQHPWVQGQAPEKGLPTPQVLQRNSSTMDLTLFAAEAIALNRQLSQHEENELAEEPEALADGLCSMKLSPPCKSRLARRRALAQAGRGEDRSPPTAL

MLTK (human) = MLTK (human) (UniProt Q9NYL2)
MYLK (human) = MYLK (human) (UniProt Q15746)
NEK3 (human) = NEK3 (human) (UniProt P51956)
NEK3 (human), sequence (P51956 whole entry, looked up): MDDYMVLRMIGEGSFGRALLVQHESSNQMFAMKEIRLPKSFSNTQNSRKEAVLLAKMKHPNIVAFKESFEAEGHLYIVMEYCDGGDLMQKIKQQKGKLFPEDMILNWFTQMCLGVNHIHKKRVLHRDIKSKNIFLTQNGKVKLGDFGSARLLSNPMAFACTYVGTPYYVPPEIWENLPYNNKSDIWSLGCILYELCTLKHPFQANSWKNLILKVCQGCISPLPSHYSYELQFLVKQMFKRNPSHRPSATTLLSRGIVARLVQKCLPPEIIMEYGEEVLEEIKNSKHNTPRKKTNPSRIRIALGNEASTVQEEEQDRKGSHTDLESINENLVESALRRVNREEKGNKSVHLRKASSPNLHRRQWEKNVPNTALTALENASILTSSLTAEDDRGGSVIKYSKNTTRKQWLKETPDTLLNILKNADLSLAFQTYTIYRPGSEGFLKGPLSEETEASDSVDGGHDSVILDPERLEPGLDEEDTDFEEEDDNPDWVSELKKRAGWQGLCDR

NEK7 (human) = NEK7 (human) (UniProt Q8TDX7)
NEK9 (human) = NEK9 (human) (UniProt Q8TD19)
PDGFRA (human) = PDGFRA (human) (UniProt P16234)
PHKG1 (human) = PHKG1 (human) (UniProt Q16816)
PHKG1 (human), sequence (Q16816 whole entry, looked up): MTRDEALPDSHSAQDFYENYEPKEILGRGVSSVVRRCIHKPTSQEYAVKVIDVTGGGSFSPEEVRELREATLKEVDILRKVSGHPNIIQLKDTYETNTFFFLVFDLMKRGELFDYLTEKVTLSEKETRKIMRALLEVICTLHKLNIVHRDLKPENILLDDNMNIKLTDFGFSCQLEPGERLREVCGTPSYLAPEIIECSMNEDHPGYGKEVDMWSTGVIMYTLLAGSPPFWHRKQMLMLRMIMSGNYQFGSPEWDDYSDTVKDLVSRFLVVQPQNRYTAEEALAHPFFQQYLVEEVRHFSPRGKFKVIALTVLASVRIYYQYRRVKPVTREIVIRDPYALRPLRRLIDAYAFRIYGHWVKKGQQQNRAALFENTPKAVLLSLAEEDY

PLK1 (human) = PLK1 (human) (UniProt P53350)
PRKACA (human) = PRKACA (human) (UniProt P17612)
PRKCB1 (human) = PRKCB1 (human) (UniProt P05771)
PTK6 (human) = PTK6 (human) (UniProt Q13882)
SLK (human) = SLK (human) (UniProt Q9H2G2)
SRPK3 (human) = SRPK3 (human) (UniProt Q9UPE1)
STK25 (human) = STK25 (human) (UniProt O00506)
TEK (human) = TEK (human) (UniProt Q02763)
WNK3 (human) = WNK3 (human) (UniProt Q9BYP7)

ACVR1B (human), sequence (P36896 whole entry, looked up): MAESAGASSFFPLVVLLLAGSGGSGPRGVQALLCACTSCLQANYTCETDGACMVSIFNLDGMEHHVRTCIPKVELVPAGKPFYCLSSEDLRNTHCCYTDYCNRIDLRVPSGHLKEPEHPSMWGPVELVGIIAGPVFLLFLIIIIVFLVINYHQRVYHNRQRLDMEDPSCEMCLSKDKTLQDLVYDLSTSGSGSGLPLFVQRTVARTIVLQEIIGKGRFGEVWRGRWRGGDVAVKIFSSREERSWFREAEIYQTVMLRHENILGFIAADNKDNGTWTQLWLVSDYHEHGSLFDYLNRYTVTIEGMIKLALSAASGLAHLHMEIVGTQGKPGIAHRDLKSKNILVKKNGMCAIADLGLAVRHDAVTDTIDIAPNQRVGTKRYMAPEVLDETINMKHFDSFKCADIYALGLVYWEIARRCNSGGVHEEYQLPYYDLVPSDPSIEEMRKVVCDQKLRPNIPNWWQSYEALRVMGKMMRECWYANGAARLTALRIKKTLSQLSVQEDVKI

## Cc1cccc(-c2nc(C(C)(C)C)[nH]c2-c2ccc3c(c2)OCO3)n1
ABL1 (human)
  residual activity: 100%
ACVR1B (human)
  residual activity: 31%
AKT2 (human)
  residual activity: 80.1%
AXL (human)
  residual activity: 101%
CAMK2B (human)
  residual activity: 96.2%
CAMK4 (human)
  residual activity: 100%
CDC42BPA (human)
  residual activity: 89.6%
CDK6 CCND1 (human)
  residual activity: 95.2%
CHUK (human)
  residual activity: 108%
CLK3 (human)
  residual activity: 104%
CSF1R (human)
  residual activity: 102%
CSNK1D (human)
  residual activity: 63.4%
DYRK1B (human)
  residual activity: 99.6%
FES (human)
  residual activity: 108%
FGFR1 (human)
  residual activity: 90.8%
FGR (human)
  residual activity: 99.9%
FLT3 (human)
  residual activity: 96.2%
GRK7 (human)
  residual activity: 103%
GSG2 (human)
  residual activity: 78.7%
INSRR (human)
  residual activity: 95.1%
IRAK1 (human)
  residual activity: 118%
MAPK3 (human)
  residual activity: 111%
MAPK9 (human)
  residual activity: 98.2%
MARK1 (human)
  residual activity: 85.1%
MARK2 (human)
  residual activity: 90%
[1]
  residual activity: 86.8%
MLTK (human)
  residual activity: 97.8%
MYLK (human)
  residual activity: 105%
NEK3 (human)
  residual activity: 85.6%
NEK7 (human)
  residual activity: 106%
NEK9 (human)
  residual activity: 95.6%
PDGFRA (human)
  residual activity: 94.1%
PHKG1 (human)
  residual activity: 87.6%
PLK1 (human)
  residual activity: 105%
PRKACA (human)
  residual activity: 102%
PRKCB1 (human)
  residual activity: 82.5%
PTK6 (human)
  residual activity: 87.7%
SLK (human)
  residual activity: 108%
SRPK3 (human)
  residual activity: 95.1%
STK25 (human)
  residual activity: 104%
TEK (human)
  residual activity: 95.2%
WNK3 (human)
  residual activity: 94.1%

## Ic1cccc(CSc2nnc(-c3ccncc3)o2)c1
ABL1 (human)
  residual activity: 107%
ACVR1B (human)
  residual activity: 102%
AKT2 (human)
  residual activity: 101%
AXL (human)
  residual activity: 99.2%
CAMK2B (human)
  residual activity: 95.4%
CAMK4 (human)
  residual activity: 91.6%
CDC42BPA (human)
  residual activity: 98.4%
CDK6 CCND1 (human)
  residual activity: 97.5%
CHUK (human)
  residual activity: 96.5%
CLK3 (human)
  residual activity: 76.3%
CSF1R (human)
  residual activity: 104%
CSNK1D (human)
  residual activity: 103%
DYRK1B (human)
  residual activity: 96.7%
FES (human)
  residual activity: 98%
FGFR1 (human)
  residual activity: 92.4%
FGR (human)
  residual activity: 90.9%
FLT3 (human)
  residual activity: 102%
GRK7 (human)
  residual activity: 112%
GSG2 (human)
  residual activity: 95.9%
INSRR (human)
  residual activity: 98%
IRAK1 (human)
  residual activity: 121%
MAPK3 (human)
  residual activity: 95.8%
MAPK9 (human)
  residual activity: 108%
MARK1 (human)
  residual activity: 111%
MARK2 (human)
  residual activity: 116%
[1]
  residual activity: 109%
MLTK (human)
  residual activity: 96.7%
MYLK (human)
  residual activity: 99.1%
NEK3 (human)
  residual activity: 86.9%
NEK7 (human)
  residual activity: 102%
NEK9 (human)
  residual activity: 99.2%
PDGFRA (human)
  residual activity: 90.1%
PHKG1 (human)
  residual activity: 105%
PLK1 (human)
  residual activity: 98.6%
PRKACA (human)
  residual activity: 94.6%
PRKCB1 (human)
  residual activity: 97.5%
PTK6 (human)
  residual activity: 104%
SLK (human)
  residual activity: 98.6%
SRPK3 (human)
  residual activity: 101%
STK25 (human)
  residual activity: 96.2%
TEK (human)
  residual activity: 92.6%
WNK3 (human)
  residual activity: 101%

## CCCCc1c(-c2ccc(OC)cc2)[nH]c2nccnc12
ABL1 (human)
  residual activity: 83.4%
ACVR1B (human)
  residual activity: 112%
AKT2 (human)
  residual activity: 93.8%
AXL (human)
  residual activity: 110%
CAMK2B (human)
  residual activity: 97.6%
CAMK4 (human)
  residual activity: 97.6%
CDC42BPA (human)
  residual activity: 99.7%
CDK6 CCND1 (human)
  residual activity: 54.8%
CHUK (human)
  residual activity: 97.3%
CLK3 (human)
  residual activity: 116%
CSF1R (human)
  residual activity: 37.7%
CSNK1D (human)
  residual activity: 94.7%
DYRK1B (human)
  residual activity: 94.5%
FES (human)
  residual activity: 66%
FGFR1 (human)
  residual activity: 83.3%
FGR (human)
  residual activity: 57.1%
FLT3 (human)
  residual activity: 47.8%
GRK7 (human)
  residual activity: 94.1%
GSG2 (human)
  residual activity: 80%
INSRR (human)
  residual activity: 83.2%
IRAK1 (human)
  residual activity: 64.3%
MAPK3 (human)
  residual activity: 111%
MAPK9 (human)
  residual activity: 84.8%
MARK1 (human)
  residual activity: 92.9%
MARK2 (human)
  residual activity: 83.1%
[1]
  residual activity: 97.7%
MLTK (human)
  residual activity: 83.6%
MYLK (human)
  residual activity: 96.8%
NEK3 (human)
  residual activity: 99.1%
NEK7 (human)
  residual activity: 107%
NEK9 (human)
  residual activity: 106%
PDGFRA (human)
  residual activity: 90.3%
PHKG1 (human)
  residual activity: 89.4%
PLK1 (human)
  residual activity: 104%
PRKACA (human)
  residual activity: 96.6%
PRKCB1 (human)
  residual activity: 99.4%
PTK6 (human)
  residual activity: 30.4%
SLK (human)
  residual activity: 76.2%
SRPK3 (human)
  residual activity: 97.9%
STK25 (human)
  residual activity: 90.3%
TEK (human)
  residual activity: 96.3%
WNK3 (human)
  residual activity: 88.4%
